Data taken from US12459921B2, “Isoindoline compound, preparation method, pharmaceutical composition and use thereof” (SHANGHAI INSTITUTE OF MATERIA MEDICA, CHINESE ACADEMY OF …, priority 2018, dated 2025).

System: MM.1S cells
Test: Inhibitory effect on the proliferation of MM.1S, MTS cell viability test
Type: cell-based
Conditions: Homo sapiens, MM1.S, 168 h, multiple myeloma MM.1S cells, 7 days incubation, read-out: Tumor cell inhibitory activity
Procedure: Method of tumor cell proliferation inhibition test: the inventors tested all the example compounds on hematologic tumor cells, multiple myeloma MMTs cell line and acute leukemia cell MV-4-11 cell line of some examples. The activity test method and results are as follows.
1. The Compound's Inhibitory Effect on the Proliferation of MM.1S, MTS Cell Viability Test:
MM.1S cells were cultured and collected with 1640 plus 10% fetal bovine serum. The cell concentration was diluted according to 7 days, and 180 ul cell suspension was added to each well of the 96-well cell plate to 20,000 cells. 20 ul of DMSO with a final concentration of 0.2% was added to the control wells. The compound was 5-fold diluted—from the 10 mM stock solution, and 20 ul was also added to each compound cell well (the final concentration of DMSO was 0.2%). The cells were placed in a 37° C., 5% CO2 incubator to incubate for 7 days. After the reaction solution was prepared according to the MTS kit (Promega, G5430), 20 μL was added to each well and incubated in a 37° C., 5% CO2 incubator for 3-4 h. Absorbance value at 490 nm was read with a microtiter plate, and 690 nm absorbance value was used as the background value. OD490-OD690 was used as the final initial data. The formula for calculating the inhibition rate of the compound is: inhibition rate=(ODDMSO-ODcompound)/(ODDMSO-Oblank)×100%. The compound's proliferation inhibition IC50 was fitted by Graph Pad Prism 5.0. The experiment was repeated three times, and the average and standard deviation was calculated according to the three parallel experiments.
Cell viability test results: **** represents cell viability IC50>20 μM, […] represents cell viability 1 μM<IC50<20 μM, ** represents cell viability 100 nM<IC50<1 μM, * represents cell viability IC50<100 nM.

IC50 | Structure (SMILES)
100 to 1000 nM | N[C@@H](CCCc1cccc2c1CN(C1CCC(=O)NC1=O)C2=O)c1nc2cccc(Br)c2[nH]1 (stereo in doubt) [Example 195, 3-(4-((S)-4-amino-4-(7-bromo-1H-benzo[d]imidazole-2-)butyl)-1-oxoisoindoline-2-)piperidine-2,6-dione]
< 100 nM | O=C1CCC(N2Cc3c(CCCCCOc4ccnc5ccccc45)cccc3C2=O)C(=O)N1 (stereo not shown) [Example 1, 3-(1-oxo-4-(5-(quinoline-4-oxy)pentyl)isoindoline-2-)piperidine-2,6-dione]
100 to 1000 nM | O=C1CCC(N2Cc3c(CCCOc4ccnc5ccccc45)cccc3C2=O)C(=O)N1 (stereo not shown) [Example 2, 3-(1-oxo-4-(3-(quinoline-4-oxy)propyl)isoindoline-2-)piperidine-2,6-dione]
< 100 nM | O=C1CCC(N2Cc3c(CCCCCCOc4ccnc5ccccc45)cccc3C2=O)C(=O)N1 (stereo not shown) [Example 3, 3-(1-oxo-4-(6-(quinoline-4-oxy)hexyl)isoindoline-2-)piperidine-2,6-dione]
1000 to 20000 nM | O=C1CCC(N2Cc3c(OCCCOc4ccnc5ccccc45)cccc3C2=O)C(=O)N1 (stereo not shown) [Example 4, 3-(1-oxo-4-(3-(quinoline-4-oxy)propoxy)isoindoline-2-)piperidine-2,6-dione]
100 to 1000 nM | O=C1CCC(N2Cc3c(CCCCCOc4cccc5cnccc45)cccc3C2=O)C(=O)N1 (stereo not shown) [Example 5]
100 to 1000 nM | Cc1ccc2nc(C(F)(F)F)cc(OCCCCCc3cccc4c3CN(C3CCC(=O)NC3=O)C4=O)c2c1 (stereo not shown) [Example 7, 3-(4-(5-((6-methyl-2-(trifluoromethyl)quinoline-4-)oxy)pentyl)-1-oxoisoindoline-2-)piperidine-2,6-dione]
< 100 nM | O=C1CCC(N2Cc3c(CCCCCOc4ccnc5ccsc45)cccc3C2=O)C(=O)N1 (stereo not shown) [Example 9, 3-(1-oxo-4-(5-(thieno[3,2-b]pyridine-7-oxy)pentyl)isoindoline-2-)piperidine-2,6-dione]
< 100 nM | O=C1CCC(N2Cc3c(CCCCCOc4cnc5ccccc5c4)cccc3C2=O)C(=O)N1 (stereo not shown) [Example 11, 3-(1-oxo-4-(5-(quinoline-3-oxy)pentyl)isoindoline-2-)piperidine-2,6-dione]
100 to 1000 nM | O=C1CCC(N2Cc3c(OCCCCCOc4ccnc5ccccc45)cccc3C2=O)C(=O)N1 (stereo not shown) [Example 12, 3-(1-oxo-4-((5-(quinoline-4-oxy)pentyl)oxy)isoindoline-2-)piperidine-2,6-dione]
< 100 nM | O=C1CCC(N2Cc3c(CCCCCOc4cc(C(F)(F)F)nc5ccccc45)cccc3C2=O)C(=O)N1 (stereo not shown) [Example 13, 3-(1-oxo-4-(5-((2-(trifluoromethyl)quinoline-4-)oxy)pentyl)isoindoline-2-)piperidine-2,6-ditone]
< 100 nM | O=C1CCC(N2Cc3c(OCCCCCCOc4ccnc5ccccc45)cccc3C2=O)C(=O)N1 (stereo not shown) [Example 14, 3-(1-oxo-4-((6-(quinoline-4-oxy)hexyl)oxy)isoindoline-2-)piperidine-2,6-dione]
< 100 nM | O=C1CCC(N2Cc3c(CCCCOc4ccnc5ccccc45)cccc3C2=O)C(=O)N1 (stereo not shown) [Example 15, 3-(1-oxo-4-(4-(quinoline-4-oxy)butyl)isoindoline-2-)piperidine-2,6-dione]
100 to 1000 nM | O=C1CCC(N2Cc3c(CCCCCN4CCOCC4)cccc3C2=O)C(=O)N1 (stereo not shown) [Example 16, 3-(4-(5-morpholinpentyl)-1-oxoisoindoline-2)-piperidine-2,6-dione]
< 100 nM | O=C1CCC(N2Cc3c(CCCCCN4CCCC4c4ccccc4)cccc3C2=O)C(=O)N1 (stereo not shown) [Example 17, 3-(1-oxo-4-(5-(2-phenylpyrroline-1-)pentyl)indoline-2-)piperidine-2,6-dione]
< 100 nM | O=C1CCC(N2Cc3c(CCCCCN4CCN(c5ccccc5)CC4)cccc3C2=O)C(=O)N1 (stereo not shown) [Example 18, 3-(1-oxo-4-(5-(4-phenylpiperazine-1-)pentyl)indoline-2-)piperidine-2,6-dione]
< 100 nM | COc1ccccc1N1CCN(CCCCCc2cccc3c2CN(C2CCC(=O)NC2=O)C3=O)CC1 (stereo not shown) [Example 19, 3-(4-(5-(4-(2-methoxyphenyl)piperazine-1-)pentyl)-1-oxoindoline-2-)piperidine-2,6-dione]
> 20000 nM | O=C1CCC(N2Cc3c(CCCCCN4CCC(c5ccccc5)CC4)cccc3C2=O)C(=O)N1 (stereo not shown) [Example 20, 3-(1-oxo-4-(5-(4-phenylpiperidine-1-)pentyl)indoline-2-)piperidine-2,6-dione]
< 100 nM | O=C1CCC(N2Cc3c(CCCCN4CCN(c5cccc(Cl)c5Cl)CC4)cccc3C2=O)C(=O)N1 (stereo not shown) [Example 21, 3-(4-(4-(4-(2,3-dichlorophenyl)piperazine-1-)butyl)-1-oxoisoindoline-2-)piperidine-2,6-dione]
< 100 nM | O=C1CCC(N2Cc3c(CCCCCN4CCN(c5cccc(C(F)(F)F)c5)CC4)cccc3C2=O)C(=O)N1 (stereo not shown) [Example 23, 3-(1-oxo-4-(5-(4-(3-trifluoromethylphenyl)piperazine-1-)pentyl)isoindoline-2-)piperidine-2,6-dione]
< 100 nM | O=C1CCC(N2Cc3c(CCCCCN4CCN(c5ccnc6ccccc56)CC4)cccc3C2=O)C(=O)N1 (stereo not shown) [Example 24, 3-(1-oxo-4-(5-(4-(quinoline-4-)piperazine-1-)pentyl)isoindoline-2-)piperidine-2,6-dione]
1000 to 20000 nM | C[C@]1(N2Cc3c(OCCCN4CCN(c5cccc(Cl)c5Cl)CC4)cccc3C2=O)CCC(=O)NC1=O [Example 25, (S)-3-(4-(3-(4-(2,3-dichlorophenyl)piperazine-1-)propoxy)-1-oxoisoindoline-2-)-3-methylpiperidine-2,6-dione]
< 100 nM | O=C1CCC(N2Cc3c(CCCCCN4CCN(c5cccc(Cl)c5Cl)CC4)cccc3C2=O)C(=O)N1 (stereo not shown) [Example 26, 3-(4-(5-(4-(2,3-dichlorophenyl)piperazine-1-)pentyl)-1-oxoisoindoline-2-)piperidine-2,6-dione]
1000 to 20000 nM | C[C@]1(N2C(=O)c3cccc(OCCCN4CCN(c5cccc(Cl)c5Cl)CC4)c3C2=O)CCC(=O)NC1=O [Example 27, (S)-4-(3-(4-(2,3-dichlorophenyl)piperazine-1-)propoxy)-2-(3-methyl-2,6-dioxopiperidine-3-)isoindoline-1,3-dione]

Structure (SMILES) | IC50
O=C1CCC(N2Cc3c(OCCCCOc4ccnc5ccccc45)cccc3C2=O)C(=O)N1 (stereo not shown) [Example 6, 3-(1-oxo-4-(4-(quinoline-4-oxy)butoxy)isoindoline-2-)piperidine-2,6-dione] | < 100 nM
O=C1CCC(N2Cc3c(OCCCCOc4cc(C5CC5)nc5ccccc45)cccc3C2=O)C(=O)N1 (stereo not shown) [Example 8, 3-(4-(4-((2-cyclopropylquinoline-4-)oxy)butoxy)-1-oxoisoindoline-2-)piperidine-2,6-dione] | < 100 nM
CCc1cc(OCCCCOc2cccc3c2CN(C2CCC(=O)NC2=O)C3=O)c2ccccc2n1 (stereo not shown) [Example 10, 3-(4-(4-((2-ethylquinoline-4-)oxy)butoxy)-1-oxoisoindoline-2-)piperidine-2,6-dione] | < 100 nM
O=C1CCC(N2Cc3c(OCCCC(=O)N4CCN(c5ccccc5)CC4)cccc3C2=O)C(=O)N1 (stereo not shown) [Example 28, 3-(1-oxo-4-(4-oxo-4-(4-phenylpiperazine-1-)butoxy)isoindoline-2-)piperidine-2,6-dione] | < 100 nM
